Consider three molecules from the NIST ThermoML archive (doi:10.1016/j.jct.2005.05.020).

Each structure is given as a SMILES string. ± gives the expanded uncertainty stated by the source.

The conditions of the data set: 101.33 kPa, Liquid.

With `CCCCCC` [hexane], the mass density by setting is: (273.15 K) 677.18 ± 0.66 kg/m3; (278.15 K) 672.79 ± 0.67 kg/m3; (283.15 K) 668.37 ± 0.67 kg/m3; (288.15 K) 663.91 ± 0.68 kg/m3; (293.15 K) 659.42 ± 0.69 kg/m3; (298.15 K) 654.89 ± 0.69 kg/m3. The mass density by setting is: (303.15 K) 650.33 ± 0.7 kg/m3; (308.15 K) 645.73 ± 0.71 kg/m3; (313.15 K) 641.08 ± 0.72 kg/m3; (318.15 K) 636.38 ± 0.72 kg/m3; (323.15 K) 631.64 ± 0.73 kg/m3; (328.15 K) 626.84 ± 0.74 kg/m3. In addition, the mass density was 621.99 ± 0.75 kg/m3 (333.15 K) and 617.07 ± 0.75 kg/m3 (338.15 K).
Take `CCCCCCC` [heptane]: the mass density came out at 700.67 ± 0.62 kg/m3 (273.15 K); 696.57 ± 0.62 kg/m3 (278.15 K); 692.4 ± 0.63 kg/m3 (283.15 K); 688.2 ± 0.64 kg/m3 (288.15 K); 683.99 ± 0.64 kg/m3 (293.15 K); 679.75 ± 0.65 kg/m3 (298.15 K). For the same molecule, the mass density came out at 675.49 ± 0.66 kg/m3 (303.15 K); 671.19 ± 0.66 kg/m3 (308.15 K); 666.87 ± 0.67 kg/m3 (313.15 K); 662.52 ± 0.68 kg/m3 (318.15 K); 658.13 ± 0.68 kg/m3 (323.15 K); 653.71 ± 0.69 kg/m3 (328.15 K). Besides, the mass density reads like this: (333.15 K) 649.24 ± 0.7 kg/m3; (338.15 K) 644.74 ± 0.71 kg/m3; (343.15 K) 640.19 ± 0.71 kg/m3; (348.15 K) 635.6 ± 0.72 kg/m3; (353.15 K) 630.95 ± 0.73 kg/m3; (358.15 K) 626.26 ± 0.74 kg/m3.
For the molecule `CCCCC` [pentane], the mass density turned out to be 645.5 ± 0.72 kg/m3 (273.15 K); 640.7 ± 0.72 kg/m3 (278.15 K); 635.9 ± 0.73 kg/m3 (283.15 K); 631.04 ± 0.74 kg/m3 (288.15 K); 626.12 ± 0.74 kg/m3 (293.15 K); 621.14 ± 0.75 kg/m3 (298.15 K). Further, the mass density reads like this: (303.15 K) 616.11 ± 0.76 kg/m3; (308.15 K) 611.01 ± 0.77 kg/m3.

By mass density is commonly meant mass per unit of volume.
